Source: US12378328B2, “Biohybrid peptidoglycan oligomers” (Nanyang Technological University, priority 2019, dated 2025)

Columns and labels:
[1] = system: E. faecalis OG1RF; assay: TIRF microscopy of wild type and L-form bacteria; format: cell-based; settings: 30 min, 37° C.; for fluorescence localisation, L-form cells: L-form E. faecalis OG1RF
Source text: L-form bacteria and fluorescence microscopy were deployed to further study the interaction between PGOs and bacterial cell walls. L-form bacteria are deficient in cell wall components (referring to substrates forming the cell wall) or cell wall fragments (referring to the residues formed after cell autolysis) on their surface. BOCILLIN™ FL (Boc-FL), a fluorescent penicillin-derivative, was used to compare the localisation of penicillin-derivatives to that of PGOs.
The localisation of PGOs-rhodamine was also compared to the membrane dye Polymyxin B-BODIPY FL (Polymyxin B). […] In comparison, the PGOs localised in discrete punctae on the L-form cell surfaces. […] Thus, it is concluded that PGOs' localisation patterns within bacterial cell walls strongly resemble penicillin-derivatives (FIG. 9, top row).
L-forms were generated using DM3 agar by modified methods from reported protocol (Molec. Gen. Genet., 1979, 168, 111-115). DM3 medium consists of 1.2 wt % agar, 0.5 wt % Tryptone, 0.5 wt % yeast extract, 1 M Succinate (pH 7.3), 3.5 wt % K2HPO4 and 1.5 wt % KH2PO4, 20 wt % Glucose, 1 M MgCl2 and 2 wt % BSA, with the balance being water. Parental strain E. faecalis OG1RF was grown overnight at 37° C. in DM3 broth. 100 μL of an overnight culture was directly plated on DM3 agar plates supplemented with 200 μg/ml penicillin G. The plates were incubated at 37° C. Small fried egg-like shaped colonies appeared after 5 days. The colonies were restreaked on DM3 agar with 200 μg/ml penicillin G for a few times to get pure colonies, and serial passaging (ten times) of pure colonies in DM3 agar with decreasing penicillin G concentrations to generate stable L-forms. The stable L-forms were stored at −80° C. in 20% glycerol.
Fluorescence microscopy was performed on Nikon TIRF microscope (Nikon instruments, NY, USA). BODIPY FL and sulforhodamine B were excited at 488 and 560 nm and emitted at 512 and 580 nm respectively. […]

[2] = system: S. aureus and E. faecalis; assay: STED super-resolution microscopy of cell walls that incorporated PGOs; format: cell-based
Description: To prepare samples for super resolution STED microscopy, overnight broth cultures were grown in 5 ml of fresh culture broth (1:100 dilution) to prepare logarithmic phase cultures after incubation at 37° C. for 4 hours in a shaking incubator (225 rpm). Then, bacteria cells were pelleted by centrifugation at 1,500×g for 5 min, suspended in culture media (MHB and BHI) at a concentration of 10^8 CFU ml^−1 and incubated for 1 h in the dark in the presence of 100 μg/ml of rhodamine-labeled derivative of 1 at 37° C. with agitation (225 rpm). […] Cells were fixed for 1 h at 37° C. in a shaking incubator (225 rpm), washed three times in PBS and applied to a sterile glass bottom collagen coated dish (MatTek Corporation).
STED super resolution microscopy was performed on a Leica TCS SP8 STED-3× microscope (Leica Microsystems, Wetzlar, Germany) at SingHealth Advanced Biomaging Core. 479 nm and 556 nm lasers were used for fluorescence excitation, while 660 nm STED laser was used for depletion. In order to achieve maximum lateral resolution, all images were acquired in 2D STED mode. Further image processing required deconvolution, which was done using Huygens Professional software (Scientific Volume Imaging, Hilversum, Netherlands).
To characterize the bacterial PG cell walls that incorporated PGOs, the microscope images obtained from Example 5 were further analysed.

## Cc1cc(C)n2c1C=C1C=CC(CCC(=O)Nc3ccc(OCC(=O)N[C@@H]4C(=O)N5[C@@H]4SC(C)(C)[C@@H]5C(=O)[O-])cc3)=[N+]1[B-]2(F)F.[Na+] [Boc-FL]
[1]
  fluorescence localisation, L-form cells: only a few distinct fluorescent punctae
[1]; wild type E. faecalis OG1RF
  fluorescence localisation, wild type cells: intense fluorescence at the septum region and also the adjacent cell surface

## CCCCN(CCCC)c1ccc(/C=C/c2cc[n+](CCC[N+](C)(C)CCCN)cc2)cc1.Cl.[Cl-].[Cl-] [FM 1-43fx]
[2]
  localisation of signal on the bacterial cell: adsorbed directly onto the bacterial cell surface

## Polymyxin B
[1]
  fluorescence localisation, L-form cells: Strong uniform membranous staining
